Our source for the IC50 values is patent US11066396B2 (priority 2016, dated 2021).

In one assay the target is HDAC5 (Homo sapiens (Human), UniProt Q9UQL6). The note with it: read-out: HDAC5 IC50.
For another assay, the target named is HDAC1 (Homo sapiens (Human), UniProt Q13547). The conditions noted are these: read-out: HDAC1 IC50.
For the next assay, the target named is HDAC8 (Homo sapiens (Human), UniProt Q9BY41). The conditions noted are these: read-out: HDAC8 IC50.

SMILES strings stand for the structures.

Chain of HDAC8 (Q9BY41 whole entry): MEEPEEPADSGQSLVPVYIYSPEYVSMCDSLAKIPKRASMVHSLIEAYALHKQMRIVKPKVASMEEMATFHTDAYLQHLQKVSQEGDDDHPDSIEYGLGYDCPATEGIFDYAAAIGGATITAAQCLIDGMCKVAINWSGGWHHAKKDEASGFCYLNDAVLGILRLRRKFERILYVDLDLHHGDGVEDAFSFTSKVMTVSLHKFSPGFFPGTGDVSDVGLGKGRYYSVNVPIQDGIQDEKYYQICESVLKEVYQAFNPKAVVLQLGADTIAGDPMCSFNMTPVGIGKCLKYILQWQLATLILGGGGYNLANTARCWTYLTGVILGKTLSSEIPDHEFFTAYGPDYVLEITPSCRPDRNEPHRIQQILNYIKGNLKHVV
Chain of HDAC5 (Q9UQL6 656-1122): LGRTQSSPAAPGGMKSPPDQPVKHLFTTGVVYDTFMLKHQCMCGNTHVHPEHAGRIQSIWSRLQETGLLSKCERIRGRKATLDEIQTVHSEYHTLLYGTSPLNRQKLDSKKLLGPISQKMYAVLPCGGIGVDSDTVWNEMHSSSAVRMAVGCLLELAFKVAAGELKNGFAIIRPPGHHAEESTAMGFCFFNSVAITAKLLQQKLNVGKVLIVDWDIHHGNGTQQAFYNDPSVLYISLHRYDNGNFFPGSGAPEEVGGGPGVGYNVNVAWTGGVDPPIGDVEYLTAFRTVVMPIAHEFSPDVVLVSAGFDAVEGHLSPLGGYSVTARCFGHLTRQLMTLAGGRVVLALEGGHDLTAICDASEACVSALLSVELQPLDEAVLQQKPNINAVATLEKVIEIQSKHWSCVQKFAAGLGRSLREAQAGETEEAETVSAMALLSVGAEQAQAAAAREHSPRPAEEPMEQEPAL
Chain of HDAC1 (Q13547 whole entry): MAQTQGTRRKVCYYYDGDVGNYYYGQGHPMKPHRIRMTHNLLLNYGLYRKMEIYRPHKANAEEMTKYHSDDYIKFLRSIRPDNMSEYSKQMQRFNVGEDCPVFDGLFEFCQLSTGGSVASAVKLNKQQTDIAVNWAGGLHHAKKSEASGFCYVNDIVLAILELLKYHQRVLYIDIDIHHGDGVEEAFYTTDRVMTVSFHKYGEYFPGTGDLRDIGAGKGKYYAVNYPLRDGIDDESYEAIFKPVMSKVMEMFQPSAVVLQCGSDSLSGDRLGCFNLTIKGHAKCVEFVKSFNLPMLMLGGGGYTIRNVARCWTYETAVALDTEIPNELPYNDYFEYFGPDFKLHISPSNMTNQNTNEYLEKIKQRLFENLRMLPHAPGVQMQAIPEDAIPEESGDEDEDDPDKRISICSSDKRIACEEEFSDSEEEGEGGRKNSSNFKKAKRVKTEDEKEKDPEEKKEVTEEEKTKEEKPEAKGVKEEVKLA

By IC50 is commonly meant the point on the concentration scale where inhibition reaches its midpoint. On to `O=C1CCC(c2ccccc2Cl)N1c1cc(F)c(-c2noc(C(F)(F)F)n2)cc1F` (racemic) [Example 120, 5-(2-chlorophenyl)-1-(2,5-difluoro-4-(5-(trifluoromethyl)-1,2,4-oxadiazol-3-yl)phenyl)pyrrolidin-2-one], for which the IC50 at HDAC5 amounted to 79 nM.
As for `O=C(NC(Cc1ccc(-c2noc(C(F)(F)F)n2)cn1)c1cccc(C(F)(F)F)c1)C1CCS(=O)(=O)CC1` (racemic) [Example 477, 1,1-dioxo-N-(2-{5-[5-(trifluoromethyl)-1,2,4-oxadiazol-3-yl]pyridin-2-yl}-1-[3-(trifluoromethyl)phenyl]ethyl)-llambda~6~-thiane-4-carboxamide], the IC50 turned out to be 670 nM on HDAC1 and 620 nM on HDAC5.
The matching figures for `CC(C)(C)CC(=O)NC(Cc1ccc(-c2noc(C(F)(F)F)n2)cn1)c1cccc(C(F)(F)F)c1` (racemic) [Example 481, 3,3-dimethyl-N-(2-{5-[5-(trifluoromethyl)-1,2,4-oxadiazol-3-yl]pyridin-2-yl}-1-[3-(trifluoromethyl)phenyl]ethyl)butanamide]: 1100 nM and 710 nM.
The matching figures for `O=C(NC(Cc1ccc(-c2noc(C(F)(F)F)n2)cn1)c1cccc(C(F)(F)F)c1)c1ccccc1` (racemic) [Example 486, N-(2-{5-[5-(trifluoromethyl)-1,2,4-oxadiazol-3-yl]pyridin-2-yl}-1-[3-(trifluoromethyl)phenyl]ethyl)benzamide]: 690 nM and 670 nM.
The matching figures for `O=C(NC(Cc1ccc(-c2noc(C(F)(F)F)n2)cn1)c1cccc(C(F)(F)F)c1)c1ccccn1` (racemic) [Example 488, N-(2-{5-[5-(trifluoromethyl)-1,2,4-oxadiazol-3-yl]pyridin-2-yl}-1-[3-(trifluoromethyl)phenyl]ethyl)pyridine-2-carboxamide]: 880 nM and 670 nM.
Take `COCCN1Cc2ccccc2N(Cc2ccc(-c3noc(C(F)(F)F)n3)cn2)C1=O` [Example 429, 3-(2-methoxyethyl)-1-({5-[5-(trifluoromethyl)-1,2,4-oxadiazol-3-yl]pyridin-2-yl}methyl)-3,4-dihydroquinazolin-2(1H)-one]: the values for the concentration for half-maximal inhibition (IC50) at HDAC1 and on HDAC8 were 460 nM and 2300 nM, respectively.
The matching figures for `FC(F)(F)c1nc(-c2ccc(CNc3[nH]nc4ccccc34)nc2)no1` [Example 430, N-({5-[5-(trifluoromethyl)-1,2,4-oxadiazol-3-yl]pyridin-2-yl}methyl)-2H-indazol-3-amine]: 530 nM and 2000 nM.
For `FC(F)(F)c1nc(-c2ccc(CNc3c[nH]nn3)nc2)no1` [Example 431, N-({5-[5-(trifluoromethyl)-1,2,4-oxadiazol-3-yl]pyridin-2-yl}methyl)-1H-1,2,3-triazol-4-amine], the results for the IC50 at HDAC1 and at HDAC8 were 4300 nM and 1900 nM, respectively.
On to `FC(F)(F)c1nc(-c2ccc(CNc3cnsc3)nc2)no1` [Example 433, N-({5-[5-(trifluoromethyl)-1,2,4-oxadiazol-3-yl]pyridin-2-yl}methyl)isothiazol-4-amine], for which the half-maximal inhibitory concentration (IC50) on HDAC1 amounted to 890 nM; at HDAC8 it was 900 nM.
On to `FC(F)(F)c1nc(-c2ccc(CNc3cnoc3)nc2)no1` [Example 434, N-({5-[5-(trifluoromethyl)-1,2,4-oxadiazol-3-yl]pyridin-2-yl}methyl)isoxazol-4-amine], for which the IC50 at HDAC1 amounted to 1100 nM; on HDAC8, 1200 nM.
The matching figures for `C[Si]1(C)CCC(NCc2ccc(-c3noc(C(F)(F)F)n3)cn2)CC1` [Example 436, 1,1-dimethyl-N-({5-[5-(trifluoromethyl)-1,2,4-oxadiazol-3-yl]pyridin-2-yl}methyl)silinan-4-amine]: 1200 nM and 4200 nM.
The matching figures for `CN(C)C(=O)c1cccc(NCc2ccc(-c3noc(C(F)(F)F)n3)cn2)c1` [Example 438, N,N-dimethyl-3-[({5-[5-(trifluoromethyl)-1,2,4-oxadiazol-3-yl]pyridin-2-yl}methyl)amino]benzamide]: 520 nM and 1000 nM.
The matching figures for `O=C(NCc1ccccn1)c1cccc(NCc2ccc(-c3noc(C(F)(F)F)n3)cn2)c1` [Example 441, N-(pyridin-2-ylmethyl)-3-[({5-[5-(trifluoromethyl)-1,2,4-oxadiazol-3-yl]pyridin-2-yl}methyl)amino]benzamide]: 490 nM and 740 nM.
As to `NC(=O)c1ccnc(NCc2ccc(-c3noc(C(F)(F)F)n3)cn2)c1` [Example 442, 2-[({5-[5-(trifluoromethyl)-1,2,4-oxadiazol-3-yl]pyridin-2-yl}methyl)amino]pyridine-4-carboxamide], the half-maximal inhibitory concentration (IC50) turned out to be 280 nM at HDAC1 and 750 nM at HDAC8.
The matching figures for `CC(C)NC(=O)c1ccccc1NCc1ccc(-c2noc(C(F)(F)F)n2)cn1` [Example 443, N-(1-methylethyl)-2-[({5-[5-(trifluoromethyl)-1,2,4-oxadiazol-3-yl]pyridin-2-yl}methyl)amino]benzamide]: 1200 nM and 1400 nM.
The matching figures for `CNC(=O)c1ccccc1NCc1ccc(-c2noc(C(F)(F)F)n2)cn1` [Example 444, N-methyl-2-[({5-[5-(trifluoromethyl)-1,2,4-oxadiazol-3-yl]pyridin-2-yl}methyl)amino]benzamide]: 350 nM and 2500 nM.
The matching figures for `NC(=O)c1ncccc1NCc1ccc(-c2noc(C(F)(F)F)n2)cn1` [Example 445, 3-[({5-[5-(trifluoromethyl)-1,2,4-oxadiazol-3-yl]pyridin-2-yl}methyl)amino]pyridine-2-carboxamide]: 850 nM and 2200 nM.
With `O=C(NC1CC1)c1ccccc1NCc1ccc(-c2noc(C(F)(F)F)n2)cn1` [Example 446, N-cyclopropyl-2-[({5-[5-(trifluoromethyl)-1,2,4-oxadiazol-3-yl]pyridin-2-yl}methyl)amino]benzamide], the IC50 is 240 nM on HDAC1 and 1600 nM at HDAC8.
The matching figures for `O=C(Nc1ccccc1)c1ccccc1NCc1ccc(-c2noc(C(F)(F)F)n2)cn1` [Example 447, N-phenyl-2-[({5-[5-(trifluoromethyl)-1,2,4-oxadiazol-3-yl]pyridin-2-yl}methyl)amino]benzamide]: 970 nM and 740 nM.
Turning to `NC(=O)c1cccc(NCc2ccc(-c3noc(C(F)(F)F)n3)cn2)c1` [Example 449, 3-[({5-[5-(trifluoromethyl)-1,2,4-oxadiazol-3-yl]pyridin-2-yl}methyl)amino]benzamide], the values for the IC50 at HDAC1 and at HDAC8 were 310 nM and 1900 nM, respectively.
The matching figures for `O=C1COC[C@@H](CNCc2ccc(-c3noc(C(F)(F)F)n3)cn2)N1` [Example 450, (5R)-5-{[({5-[5-(trifluoromethyl)-1,2,4-oxadiazol-3-yl]pyridin-2-yl}methyl)amino]methyl}morpholin-3-one]: 2800 nM and 2800 nM.
As to `O=C1COC[C@H](CNCc2ccc(-c3noc(C(F)(F)F)n3)cn2)N1` [Example 451, (5S)-5-{[({5-[5-(trifluoromethyl)-1,2,4-oxadiazol-3-yl]pyridin-2-yl}methyl)amino]methyl}morpholin-3-one], the IC50 came to 2500 nM at HDAC1 and 2400 nM at HDAC8.
The matching figures for `FC(F)(F)c1nc(-c2ccc(COc3ncccn3)cc2)no1` [Example 457, 2-({4-[5-(trifluoromethyl)-1,2,4-oxadiazol-3-yl]benzyl}oxy)pyrimidine]: 2600 nM and 730 nM.
For the compound `FC(F)(F)c1nc(-c2ccc(COc3ccc4ccccc4n3)nc2)no1` [Example 461, 2-({5-[5-(trifluoromethyl)-1,2,4-oxadiazol-3-yl]pyridin-2-yl}methoxy)quinoline], the IC50 was found to be 500 nM on HDAC1 and 21000 nM at HDAC8.
Regarding `CC(C)(C)OC(=O)C1COCC(=O)N1c1ccc(-c2noc(C(F)(F)F)n2)c(F)c1` (centres unmarked) [Example 468, tert-butyl 4-{3-fluoro-4-[5-(trifluoromethyl)-1,2,4-oxadiazol-3-yl]phenyl}-5-oxomorpholine-3-carboxylate], the IC50 was found to be 940 nM on HDAC1 and 5500 nM on HDAC8.
The matching figures for `O=C(C1CCS(=O)(=O)CC1)N(Cc1cnc(-c2noc(C(F)(F)F)n2)cn1)c1cccc(C(F)(F)F)c1` [Example 470, N-({5-[5-(trifluoromethyl)-1,2,4-oxadiazol-3-yl]pyrazin-2-yl}methyl)-N-[3-(trifluoromethyl)phenyl]tetrahydro-2H-thiopyran-4-carboxamide 1,1-dioxide]: 1100 nM and 10000 nM.
Take `COC(=O)N1CC(=O)N(Cc2ccc(-c3noc(C(F)(F)F)n3)cn2)c2ccccc21` [Example 472, methyl 3-oxo-4-({5-[5-(trifluoromethyl)-1,2,4-oxadiazol-3-yl]pyridin-2-yl}methyl)-3,4-dihydroquinoxaline-1(2H)-carboxylate]: the 50% inhibitory concentration (IC50) turned out to be 320 nM at HDAC1 and 1400 nM on HDAC8.
The matching figures for `FC(F)(F)c1nc(-c2cnc(COc3ccc4ccccc4n3)nc2)no1` [Example 473, 2-({5-[5-(trifluoromethyl)-1,2,4-oxadiazol-3-yl]pyrimidin-2-yl}methoxy)quinoline]: 160 nM and 45000 nM.
Consider `O=c1ccc2ccccc2n1Cc1ncc(-c2noc(C(F)(F)F)n2)cn1` [Example 474, 1-({5-[5-(trifluoromethyl)-1,2,4-oxadiazol-3-yl]pyrimidin-2-yl}methyl)quinolin-2(1H)-one], for which the IC50 worked out at 220 nM at HDAC1 and 6000 nM at HDAC8.
The matching figures for `O=C1CCc2cccc(C(F)(F)F)c2N1Cc1ccc(-c2noc(C(F)(F)F)n2)cn1` [Example 475, 8-(trifluoromethyl)-1-({5-[5-(trifluoromethyl)-1,2,4-oxadiazol-3-yl]pyridin-2-yl}methyl)-3,4-dihydroquinolin-2(1H)-one]: 880 nM and 5600 nM.
